Where a name gives a salt, the structure may show the parent alone. The source made the active and inactive calls.

The first assay has as its target T1, Hexokinase (Trypanosoma brucei, UniProt Q38C41).
T1 sequence (Q38C41 whole entry): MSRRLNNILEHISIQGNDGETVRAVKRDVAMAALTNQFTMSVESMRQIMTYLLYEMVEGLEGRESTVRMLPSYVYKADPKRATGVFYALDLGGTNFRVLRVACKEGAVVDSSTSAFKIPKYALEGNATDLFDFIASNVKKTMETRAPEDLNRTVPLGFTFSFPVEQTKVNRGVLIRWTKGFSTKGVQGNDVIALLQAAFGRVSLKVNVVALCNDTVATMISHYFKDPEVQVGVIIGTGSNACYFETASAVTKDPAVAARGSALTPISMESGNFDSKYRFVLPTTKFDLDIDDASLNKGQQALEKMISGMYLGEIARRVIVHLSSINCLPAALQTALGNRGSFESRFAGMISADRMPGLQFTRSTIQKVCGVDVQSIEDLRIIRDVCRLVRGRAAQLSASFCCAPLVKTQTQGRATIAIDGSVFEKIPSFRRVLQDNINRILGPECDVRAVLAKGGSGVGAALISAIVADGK
Briefly: Confirmation assay for inhibitors of Trypanosoma brucei hexokinase 1-Analogue-first series. [Related pubchem assays (depositor defined):AID1430, AID1632, AID2516, AID2560, AID2579, AID2600, AID449725, AID492951]. Format: functional.
Settings: not given
Consider `O=C(Cn1sc2ccccc2c1=O)Nc1ccccc1I`, for which the IC50 was 4.75 µM (active). Regarding `COc1ccc(C(=O)Nc2cc(I)ccc2C(=O)O)cc1`, the IC50 is 14.2 µM (active).

On to `CC(C)(C)c1ccc(C(=O)Nc2cc(Cl)ccc2O)cc1`, for which the IC50 was 25 µM (inactive).

Turning to `O=C1c2cccc(Br)c2SCN1c1ccccc1`, the IC50 was > 25 µM (inactive).

For a further assay, the target named is T2, Short transient receptor potential channel 4 (Mus musculus, UniProt Q9QUQ5).
T2 sequence (Q9QUQ5 whole entry): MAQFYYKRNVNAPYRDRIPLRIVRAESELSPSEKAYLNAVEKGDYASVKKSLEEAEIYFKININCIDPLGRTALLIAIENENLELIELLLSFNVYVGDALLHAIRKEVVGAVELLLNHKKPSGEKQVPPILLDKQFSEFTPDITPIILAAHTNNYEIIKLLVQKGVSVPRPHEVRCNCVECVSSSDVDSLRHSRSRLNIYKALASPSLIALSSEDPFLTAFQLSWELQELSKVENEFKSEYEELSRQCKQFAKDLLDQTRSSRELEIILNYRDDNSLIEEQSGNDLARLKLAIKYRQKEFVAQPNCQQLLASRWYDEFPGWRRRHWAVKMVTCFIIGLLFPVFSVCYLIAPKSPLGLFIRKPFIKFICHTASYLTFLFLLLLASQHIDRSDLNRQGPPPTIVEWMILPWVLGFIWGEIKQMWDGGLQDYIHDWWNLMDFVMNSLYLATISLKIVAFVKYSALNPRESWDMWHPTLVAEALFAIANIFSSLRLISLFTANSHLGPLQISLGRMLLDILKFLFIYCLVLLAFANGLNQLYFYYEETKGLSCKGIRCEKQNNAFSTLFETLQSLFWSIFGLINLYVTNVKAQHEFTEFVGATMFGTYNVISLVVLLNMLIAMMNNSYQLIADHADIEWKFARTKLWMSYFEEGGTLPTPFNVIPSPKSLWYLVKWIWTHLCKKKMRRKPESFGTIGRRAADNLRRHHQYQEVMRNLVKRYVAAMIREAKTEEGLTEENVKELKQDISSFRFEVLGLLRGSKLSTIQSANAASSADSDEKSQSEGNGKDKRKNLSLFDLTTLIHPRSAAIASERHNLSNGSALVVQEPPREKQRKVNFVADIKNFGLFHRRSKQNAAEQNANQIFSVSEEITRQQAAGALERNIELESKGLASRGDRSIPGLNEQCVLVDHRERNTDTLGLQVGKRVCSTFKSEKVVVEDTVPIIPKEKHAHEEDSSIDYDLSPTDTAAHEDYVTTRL
The assay can be described thus: mouse TRPC4 channel inhibitors, dose response, cell-based, HEK293 TRPC4/mu-opioid, Fluo-4 calcium (AID 434942).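 Further: potency of inhibitors blocking the TRPC4 calcium response.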 Format: functional.
Settings: not given
For `COc1ccc(-n2c3c(cc(C(=O)NCc4ccco4)c2=O)C(=O)CC(C)(C)C3)cc1`, the EC50 is 3.76 µM (active). As for `Cc1ccc(C)c2[nH]c(=O)c(CN(Cc3nnnn3C3CCCCC3)CC3CCCO3)cc12` (stereo not drawn), the half-maximal effective concentration (EC50) was 1.68 µM (active).

Consider `COCCn1c(SCc2ccc(F)cc2)nc2ccccc2c1=O`, for which the EC50 was 2.37 µM (active).

The target of another assay is T3, Coagulation factor XII (Homo sapiens, UniProt P00748).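 Further: activated factor XIIa alpha cleaving a fluorogenic AMC peptide substrate; inhibitor potency from loss of enzyme activity.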
T3 sequence (P00748 whole entry): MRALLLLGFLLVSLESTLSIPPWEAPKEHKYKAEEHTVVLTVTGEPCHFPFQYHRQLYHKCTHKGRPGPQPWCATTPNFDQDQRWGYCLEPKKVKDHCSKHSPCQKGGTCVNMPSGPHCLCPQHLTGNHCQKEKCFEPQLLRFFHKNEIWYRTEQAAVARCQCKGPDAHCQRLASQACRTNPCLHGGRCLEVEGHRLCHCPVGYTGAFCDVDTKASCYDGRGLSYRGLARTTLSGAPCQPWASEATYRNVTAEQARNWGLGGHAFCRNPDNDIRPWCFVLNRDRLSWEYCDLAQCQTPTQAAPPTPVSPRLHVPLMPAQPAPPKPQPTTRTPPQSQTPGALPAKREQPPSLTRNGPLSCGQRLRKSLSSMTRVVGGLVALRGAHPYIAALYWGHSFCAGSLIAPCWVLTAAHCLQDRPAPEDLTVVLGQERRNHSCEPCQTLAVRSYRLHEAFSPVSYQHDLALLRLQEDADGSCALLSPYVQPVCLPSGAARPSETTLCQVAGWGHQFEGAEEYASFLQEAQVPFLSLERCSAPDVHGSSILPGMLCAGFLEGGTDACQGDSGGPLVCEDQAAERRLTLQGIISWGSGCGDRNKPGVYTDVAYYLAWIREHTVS
Format: functional.
Settings: not given
As for `CCCC(C)NC(=O)Cc1ccccc1` (stereo not drawn), the IC50 is > 50 µM (inactive). Still for that read-out and setting: as for `O=C1c2ccccc2C(=O)N1OS(=O)(=O)c1ccccc1`, the figure is 1.61 µM (active); as for `O=C(NNc1cc(Cl)ccc1Cl)c1c(F)cccc1Cl`, > 50 µM (inactive); as for `Cc1ccc(C)c2[nH]c(=O)c(CN(Cc3nnnn3C3CCCCC3)CC3CCCO3)cc12` (stereo not drawn), > 50 µM (inactive).

Another assay deals with T4, Carboxy-terminal domain RNA polymerase II polypeptide A small phosphatase 1 (Homo sapiens, UniProt Q9GZU7).
T4 sequence (Q9GZU7 whole entry): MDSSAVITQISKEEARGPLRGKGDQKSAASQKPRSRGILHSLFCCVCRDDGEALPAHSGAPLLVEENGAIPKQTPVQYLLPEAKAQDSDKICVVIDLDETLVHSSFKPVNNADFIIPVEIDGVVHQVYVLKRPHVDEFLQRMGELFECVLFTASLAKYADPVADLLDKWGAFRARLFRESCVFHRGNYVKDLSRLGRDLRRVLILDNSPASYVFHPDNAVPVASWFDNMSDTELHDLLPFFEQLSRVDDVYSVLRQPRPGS
Briefly: inhibitors of CTDSP1, concentration-response testing, biochemical assay, absorbance-based, actives from ultra-high-throughput screening (AID 540297). The class given is functional.
Settings: not given
Consider `CCOC(=O)C1=C(C)c2ccccc2OC1(C(=O)OCC)c1ccccc1` (stereo not drawn), for which the IC50 is 34.2 µM (active). Still for that read-out and setting: the value for `CC(C)(C)Cc1nnc(NC(=O)Cc2cccs2)s1` was 4.36 µM (active). On the same count and under the same terms, as for `O=C(COc1cccnc1[N+](=O)[O-])Nc1ncc(Cl)cc1Cl`, the figure is 6.27 µM (active). The same measure, in the same setting: as for `Cc1nn(CCc2nnn[nH]2)c2nc(-c3ccccc3)cc(C(F)(F)F)c12`, the figure is 7.45 µM (active).

The target of a further assay is Voltage-gated inwardly rectifying potassium channel KCNH2 (Homo sapiens, UniProt Q12809). The note with it: Potency.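 Further: confirmatory quantitative high-throughput screen measuring inhibition of hERG channel activity.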
Chain of Voltage-gated inwardly rectifying potassium channel KCNH2 (Q12809 whole entry): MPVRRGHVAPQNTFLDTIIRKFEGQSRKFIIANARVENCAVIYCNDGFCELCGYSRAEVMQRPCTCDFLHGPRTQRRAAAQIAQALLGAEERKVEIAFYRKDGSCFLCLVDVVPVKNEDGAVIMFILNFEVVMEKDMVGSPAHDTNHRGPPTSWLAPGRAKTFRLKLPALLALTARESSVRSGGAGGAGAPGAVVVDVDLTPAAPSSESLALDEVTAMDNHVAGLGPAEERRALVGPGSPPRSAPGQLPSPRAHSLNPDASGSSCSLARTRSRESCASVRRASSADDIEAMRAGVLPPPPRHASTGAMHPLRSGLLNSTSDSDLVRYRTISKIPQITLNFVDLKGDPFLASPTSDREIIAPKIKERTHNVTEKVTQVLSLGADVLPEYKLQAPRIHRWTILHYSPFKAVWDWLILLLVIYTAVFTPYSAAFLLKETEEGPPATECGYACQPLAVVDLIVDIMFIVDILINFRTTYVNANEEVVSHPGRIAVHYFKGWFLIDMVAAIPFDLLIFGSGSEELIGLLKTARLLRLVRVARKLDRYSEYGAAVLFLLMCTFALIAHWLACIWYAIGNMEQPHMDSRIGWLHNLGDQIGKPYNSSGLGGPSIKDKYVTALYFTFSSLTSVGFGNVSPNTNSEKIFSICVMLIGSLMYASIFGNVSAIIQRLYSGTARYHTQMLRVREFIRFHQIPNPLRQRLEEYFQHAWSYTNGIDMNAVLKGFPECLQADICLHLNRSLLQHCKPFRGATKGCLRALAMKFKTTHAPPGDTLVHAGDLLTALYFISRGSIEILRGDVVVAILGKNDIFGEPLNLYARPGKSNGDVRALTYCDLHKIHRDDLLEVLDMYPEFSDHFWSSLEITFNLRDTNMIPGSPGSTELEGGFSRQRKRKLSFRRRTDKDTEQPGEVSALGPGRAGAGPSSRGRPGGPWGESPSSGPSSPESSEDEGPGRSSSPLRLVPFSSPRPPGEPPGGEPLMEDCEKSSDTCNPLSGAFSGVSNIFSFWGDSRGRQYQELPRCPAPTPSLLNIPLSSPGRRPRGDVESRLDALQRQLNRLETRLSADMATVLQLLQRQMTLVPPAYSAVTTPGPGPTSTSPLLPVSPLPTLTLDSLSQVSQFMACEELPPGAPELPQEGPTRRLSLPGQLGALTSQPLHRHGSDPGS
With `CCN(CC)CCNC(=O)c1cc(S(C)(=O)=O)ccc1OC` [TIAPRIDE HYDROCHLORIDE], the concentration at half-maximal activity (AC50) was 35.5 µM (inconclusive).

On to `CN(C)CCCCSC(=N)N`, for which the half-maximal activity concentration (AC50) was 35.5 µM (inconclusive).

In the case of `NCCNS(=O)(=O)c1cccc2c(Cl)cccc12`, the AC50 was 22.4 µM (inconclusive).

A word on the IC50: it is the midpoint of a concentration-inhibition curve. The EC50 is the concentration at which the effect is half-maximal. A word on the AC50: it is the concentration giving half of the maximal activity seen.

Source of the values: ChEMBL document CHEMBL1201862, “PubChem BioAssay data set” (2004).
